Reference: patent US8013006B2
Like-named read-outs stand apart in the source and are kept apart here.

Legend:
HCV replicon = test: microbe, parasite or virus in culture; assay type: cell-based; details: Hepatitis C virus, 48 h

Compound | IC50 (HCV replicon; read-out: Replicon IC5Os) | melting point | IC50 (HCV replicon; read-out: Replicon IC5Os μM)
CCCCNC(=O)Nc1ccc(-c2c(C#N)c3ccc(OC)cc3n2CCCC)cc1 [Compound 750] | < 0.5 µM | 173 to 174 °C | –
CCCCn1c(-c2ccc(NC(=O)NC(C)C)cc2)c(C#N)c2ccc(OC)cc21 [Compound 751] | 0.5 to 2 µM | 159 to 162 °C | –
CCn1c(-c2ccc3c(c2)N(S(C)(=O)=O)CC3)c(C#N)c2ccc(OC)cc21 [Compound 752] | 0.5 to 2 µM | 198 to 202 °C | –
CCn1c(-c2ccc3c(c2)N(S(=O)(=O)CC)CC3)c(C#N)c2ccc(OC)cc21 [Compound 753, 1′-ethanesulfonyl-1-ethyl-6-methoxy-2′,3′-dihydro-1H,1H′-[2,6′]biindolyl-3-carbonitrile] | < 0.5 µM | 157 to 161 °C | –
CCn1c(-c2ccc(N)cc2)c(C#N)c2ccc(OC(C)C)cc21 [Compound 758] | < 0.5 µM | 149 to 153 °C | –
CCn1c(-c2ccc(NC(=O)CCc3ccccc3)cc2)c(C#N)c2ccc(OC(C)C)cc21 [Compound 762] | < 0.5 µM | 190 to 193 °C | –
CCn1c(-c2ccc(NC(=O)c3ccccc3)cc2)c(C#N)c2ccc(OC(C)C)cc21 [Compound 763] | < 0.5 µM | 209.2 to 209.7 °C | –
CCn1c(-c2ccc(NC(=O)c3ccc(F)cc3)cc2)c(C#N)c2ccc(OC(C)C)cc21 [Compound 764] | – | 213.5 to 231.7 °C | < 0.5 µM
CCOc1ccc2c(C#N)c(-c3ccc(NC(=O)NCCCl)cc3)n(CC)c2c1 [Compound 774] | – | 205 to 206 °C | 0.5 to 2 µM
COc1ccc2c(C#N)c(-c3cccc(N4CCCS4(=O)=O)c3)n(C(C)C)c2c1 [Compound 784] | – | 245 to 246 °C | 0.5 to 2 µM
CCCS(=O)(=O)Nc1ccc(-c2c(C#N)c3cc(OC)ccc3n2CC)cc1 [Compound 789] | – | 154 to 156 °C | < 0.5 µM
CCn1c(-c2ccc(NS(=O)(=O)C3CC3)cc2)c(C#N)c2cc(OC)ccc21 [Compound 791] | – | 149 to 152 °C | < 0.5 µM
CCn1c(-c2ccc(NC(=O)OC)cc2)c(C#N)c2cc(OC)ccc21 [Compound 792] | – | 182 to 185 °C | < 0.5 µM
CCOC(=O)Nc1ccc(-c2c(C#N)c3cc(OC)ccc3n2CC)cc1 [Compound 793] | – | 154 to 155 °C | < 0.5 µM
CCCOC(=O)Nc1ccc(-c2c(C#N)c3cc(OC)ccc3n2CC)cc1 [Compound 794] | – | 149 to 151 °C | < 0.5 µM
CCn1c(-c2ccc(NC(=O)OC(C)C)cc2)c(C#N)c2cc(OC)ccc21 [Compound 795] | – | 183 to 185 °C | < 0.5 µM
CCn1c(-c2ccc(NC(=O)C3CCC3)cc2)c(C#N)c2ccc(OC)cc21 [Compound 801] | – | 199 to 219 °C | < 0.5 µM
CCn1c(-c2ccc(NC(=O)Cc3ccccc3)cc2)c(C#N)c2ccc(OC)cc21 [Compound 802] | – | 196 to 198 °C | 0.5 to 2 µM
CCn1c(-c2ccc(N3CCCC3=O)cc2)c(C#N)c2ccc(OC(F)F)cc21 [Compound 807] | – | 171 to 172 °C | < 0.5 µM
C=CCNC(=O)Nc1cccc(-c2c(C#N)c3ccc(OC)cc3n2Cc2ccccc2)c1 [Compound 818] | – | 158 to 159 °C | < 0.5 µM
CC(C)OC(=O)Nc1ccc(-c2c(C#N)c3ccc(OC(F)F)cc3n2C2CCC2)cc1 [Compound 822] | – | 144 to 145 °C | 0.5 to 2 µM
CCCn1c(-c2ccc(NS(=O)(=O)C3CC3)cc2)c(C#N)c2ccc(OC(F)F)cc21 [Compound 827] | – | 189 to 191 °C | < 0.5 µM
CCOc1ccc(-c2c(C#N)c3ccc(NS(C)(=O)=O)cc3n2CC)cc1 [Compound 834] | – | 179 to 180 °C | 0.5 to 2 µM
CCCn1c(-c2ccc(NC(=O)NCCc3ccccc3)cc2)c(C#N)c2ccc(OC)cc21 [Compound 848] | – | 193 to 194 °C | 0.5 to 2 µM
